The values that follow come from the supplement of paper PMC10702517.

The structures appear in SMILES notation. ± gives the standard deviation.

A short description of data set [1]: chemical recovery into PDMS from spiked human plasma; higher = better extraction. As to conditions: pooled human plasma, extraction method: PES with PDMS.
Data set [2] is described as follows: chemical recovery by SPE of plasma after PDMS sampling; higher = better extraction. The settings on record: pooled human plasma, extraction method: HLB SPE of plasma after PES.
Data set [3] in a line: chemical recovery from spiked human plasma; higher = better extraction. As to conditions: pooled human plasma.
Setting [4] is: extraction method: SPE only (HLB 96-well).
Where [5] appears, read: extraction method: SPE only (HLB 96-well), PES comparison experiment.
[6] abbreviates: extraction method: solvent precipitation (ACN + hexane).
Setting [7] is: extraction method: PES+SPE (3 d PDMS equilibration then HLB SPE).
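Throughout, for chemical recovery by SPE of plasma after PDMS sampling: over 400 spiked chemicals quantified by LC-HRMS or GC-HRMS via internal standard calibration, recovery relative to spike mix added to unspiked plasma extract to correct matrix effects.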

On to `O=C(Nc1ccc(Cl)cc1)Nc1ccc(Cl)c(Cl)c1` [Triclocarban], for which the “chemical recovery into PDMS” value in data set [1] (equilibration time (d): 1) was 5.9 ± 0.44%; in data set [1] (equilibration time (d): 3) it was 7.7 ± 0.6%; in data set [1] (equilibration time (d): 6), 8.27 ± 0.72%. For the same molecule, the “chemical recovery by SPE of plasma” value in data set [2] (equilibration time (d): 1) stood at 29.8 ± 8.2%; in data set [2] (equilibration time (d): 3), 28.2 ± 4.9%; in data set [2] (equilibration time (d): 6) it was 24.3 ± 4%. Also, the chemical recovery was 35 ± 5% in data set [3] (setting [4]), 25.7 ± 4.4% in data set [3] (setting [5]) and 55.4 ± 4.4% in data set [3] (setting [6]).

In the case of `Oc1cc(Cl)ccc1Oc1ccc(Cl)cc1Cl` [Triclosan], the results for the “chemical recovery into PDMS” value in data set [1] (equilibration time (d): 1), in data set [1] (equilibration time (d): 3) and in data set [1] (equilibration time (d): 6) were 16 ± 1.1%, 21 ± 0.84% and 22 ± 1.5%, respectively. In addition, the entries for the “chemical recovery by SPE of plasma” value in data set [2] (equilibration time (d): 1), in data set [2] (equilibration time (d): 3) and in data set [2] (equilibration time (d): 6) were 24.8 ± 8.3%, 23.5 ± 2% and 20.2 ± 3.3%, respectively. Moreover, the chemical recovery in data set [3] (setting [7]) stood at 49.8 ± 4.3%; in data set [3] (setting [4]) it was 34.5 ± 1.1%; in data set [3] (setting [5]) it was 40.3 ± 7.5%; in data set [3] (setting [6]) it was 40 ± 3.5%.

For the molecule `CCOC(=O)CC(O)(CC(=O)OCC)C(=O)OCC` [Triethylcitrate], the “chemical recovery into PDMS” value in data set [1] (equilibration time (d): 1) was found to be 23.6 ± 0.89%; in data set [1] (equilibration time (d): 3) it was 23.1 ± 3.8%; in data set [1] (equilibration time (d): 6) it was 26.2 ± 2.7%. Moreover, the “chemical recovery by SPE of plasma” value amounted to 18.1 ± 0.54% in data set [2] (equilibration time (d): 1), 26.1 ± 4.4% in data set [2] (equilibration time (d): 3) and 17 ± 1.2% in data set [2] (equilibration time (d): 6). Further, the chemical recovery stood at 32.4 ± 8.6% in data set [3] (setting [7]), 38.1 ± 0.71% in data set [3] (setting [4]) and 43.2 ± 5% in data set [3] (setting [5]).

Take `CCOP(=O)(OCC)OCC` [Triethylphosphate]: in data set [1] (equilibration time (d): 6), the “chemical recovery into PDMS” value is 15 ± 4.8%. Moreover, the “chemical recovery by SPE of plasma” value amounted to 12.1 ± 7% in data set [2] (equilibration time (d): 1), 15.8 ± 2.1% in data set [2] (equilibration time (d): 3) and 6.74 ± 1.1% in data set [2] (equilibration time (d): 6). For the same molecule, the chemical recovery was determined as 18.9 ± 3.4% in data set [3] (setting [4]) and 16.6 ± 7.5% in data set [3] (setting [5]).

As to `O=P(c1ccccc1)(c1ccccc1)c1ccccc1` [Triphenylphosphine oxide], the “chemical recovery into PDMS” value was determined as 41 ± 1.5% in data set [1] (equilibration time (d): 1), 44.6 ± 2.8% in data set [1] (equilibration time (d): 3) and 43.5 ± 1.5% in data set [1] (equilibration time (d): 6). The “chemical recovery by SPE of plasma” value in data set [2] (equilibration time (d): 1) was found to be 8.28 ± 1.2%; in data set [2] (equilibration time (d): 3), 8.53 ± 0.92%; in data set [2] (equilibration time (d): 6), 6.26 ± 0.28%. Besides, the chemical recovery was 58.6 ± 6.1% in data set [3] (setting [7]), 54.9 ± 1.4% in data set [3] (setting [4]) and 51.6 ± 7.2% in data set [3] (setting [5]).

Regarding `CCCOP(=O)(OCCC)OCCC` [Tripropyl phosphate], the “chemical recovery into PDMS” value is 29.8 ± 6.3% in data set [1] (equilibration time (d): 1), 35.3 ± 6.6% in data set [1] (equilibration time (d): 3) and 33.8 ± 2.4% in data set [1] (equilibration time (d): 6). For the same molecule, the “chemical recovery by SPE of plasma” value turned out to be 1.52 ± 1% in data set [2] (equilibration time (d): 1), 1.74 ± 0.42% in data set [2] (equilibration time (d): 3) and 1.1 ± 0.16% in data set [2] (equilibration time (d): 6). For the same molecule, the chemical recovery in data set [3] (setting [4]) came to 35 ± 7.1%; in data set [3] (setting [5]), 26.4 ± 7.2%.

For `CC(CCl)OP(=O)(OC(C)CCl)OC(C)CCl` (stereo not given) [Tris(1-chloro-2-propyl)phosphate], the “chemical recovery into PDMS” value turned out to be 34.1 ± 1.8% in data set [1] (equilibration time (d): 1), 44.3 ± 3.9% in data set [1] (equilibration time (d): 3) and 43.7 ± 3.3% in data set [1] (equilibration time (d): 6). Moreover, the entries for the “chemical recovery by SPE of plasma” value in data set [2] (equilibration time (d): 3) and in data set [2] (equilibration time (d): 6) were 1.7 ± 2% and 3.1 ± 2.4%, respectively. This molecule yielded a chemical recovery in data set [3] (setting [5]) of 55 ± 8.9%.

Take `O=P(OCCCl)(OCCCl)OCCCl` [Tris(2-chloroethyl)phosphate]: the “chemical recovery into PDMS” value in data set [1] (equilibration time (d): 1) worked out at 37.5 ± 1.4%; in data set [1] (equilibration time (d): 3) it was 39.8 ± 1.5%; in data set [1] (equilibration time (d): 6) it was 40.8 ± 2.8%. The “chemical recovery by SPE of plasma” value in data set [2] (equilibration time (d): 1) worked out at 15 ± 1.6%; in data set [2] (equilibration time (d): 3), 15 ± 1.8%; in data set [2] (equilibration time (d): 6), 9.84 ± 0.88%. In addition, the chemical recovery is 52.1 ± 4.5% in data set [3] (setting [7]), 47.4 ± 2.1% in data set [3] (setting [4]), 52.3 ± 5.5% in data set [3] (setting [5]) and 69.9 ± 2.8% in data set [3] (setting [6]).

On to `O=C1CCCC=CCCCCCCCCCC1` [Velvione], for which the “chemical recovery into PDMS” value was 41.7 ± 2.9% in data set [1] (equilibration time (d): 1), 43.1 ± 12% in data set [1] (equilibration time (d): 3) and 40.2 ± 13% in data set [1] (equilibration time (d): 6). In addition, in data set [2] (equilibration time (d): 1), the “chemical recovery by SPE of plasma” value stood at 1.02 ± 7.1%. For the same molecule, in data set [3] (setting [4]), the chemical recovery was 0.134 ± 0.12%.

As for `c1ccc(-c2cccc(-c3ccccc3)c2)cc1` [m-Terphenyl], the “chemical recovery into PDMS” value in data set [1] (equilibration time (d): 1) came out at 90.2 ± 24%; in data set [1] (equilibration time (d): 3), 86.8 ± 18%; in data set [1] (equilibration time (d): 6) it was 101 ± 37%. In addition, the “chemical recovery by SPE of plasma” value was 1.91 ± 3.3% in data set [2] (equilibration time (d): 1), 2.9 ± 2.5% in data set [2] (equilibration time (d): 3) and 2.74 ± 2.4% in data set [2] (equilibration time (d): 6). Further, the chemical recovery turned out to be 0.761 ± 0.18% in data set [3] (setting [4]), 2.42 ± 4.8% in data set [3] (setting [5]) and 34.3 ± 1.4% in data set [3] (setting [6]).

In the case of `c1ccc(-c2ccccc2-c2ccccc2)cc1` [o-Terphenyl], the “chemical recovery into PDMS” value in data set [1] (equilibration time (d): 1) is 81.9 ± 26%; in data set [1] (equilibration time (d): 3), 81.5 ± 8.2%; in data set [1] (equilibration time (d): 6), 88.8 ± 18%. The “chemical recovery by SPE of plasma” value in data set [2] (equilibration time (d): 1) is 2.44 ± 1.2%; in data set [2] (equilibration time (d): 3), 2.46 ± 0.63%; in data set [2] (equilibration time (d): 6), 2.62 ± 0.75%. The values for the chemical recovery in data set [3] (setting [4]) and in data set [3] (setting [5]) were 12.9 ± 2.8% and 19.9 ± 5.7%, respectively.

For the molecule `Cc1ccccc1N` [o-Toluidine], the “chemical recovery into PDMS” value is 0.669 ± 0.41% in data set [1] (equilibration time (d): 1), 0.533 ± 0.3% in data set [1] (equilibration time (d): 3) and 0.369 ± 0.35% in data set [1] (equilibration time (d): 6). Moreover, the “chemical recovery by SPE of plasma” value worked out at 4.67 ± 6.8% in data set [2] (equilibration time (d): 1), 1.92 ± 0.63% in data set [2] (equilibration time (d): 3) and 1.2 ± 0.91% in data set [2] (equilibration time (d): 6). The values for the chemical recovery in data set [3] (setting [4]), in data set [3] (setting [5]) and in data set [3] (setting [6]) were 6.06 ± 3.9%, 6.06 ± 5.9% and 17.2 ± 2.6%, respectively.

For the molecule `Cc1ccc(S(N)(=O)=O)cc1` [p-Toluenesulfonamide], the “chemical recovery into PDMS” value in data set [1] (equilibration time (d): 1) is 2.17 ± 0.29%; in data set [1] (equilibration time (d): 3), 1.8 ± 0.5%; in data set [1] (equilibration time (d): 6), 2.08 ± 0.47%. Moreover, the “chemical recovery by SPE of plasma” value was determined as 51.8 ± 5.5% in data set [2] (equilibration time (d): 1), 55.4 ± 4.7% in data set [2] (equilibration time (d): 3) and 52.8 ± 0.84% in data set [2] (equilibration time (d): 6). For the same molecule, in data set [3] (setting [6]), the chemical recovery worked out at 77.9 ± 3.1%.
